{"source": "patent US20080145876A1", "about": "“POLY(ETHYLENE GLYCOL) ANTI-BODY DETECTION ASSAYS AND KITS FOR PERFORMING THEREOF” (University of Southern California, priority 2006, published 2008)", "molecules": {"B1": {"name": "PEG-asparaginase: chemotherapy agent, PEG-conjugated asparaginase (PEG-ASNase) (conjugate, UniProt P00805 23-348, looked up)", "L-asparaginase 2": "LPNITILATGGTIAGGGDSATKSNYTVGKVGVENLVNAVPQLKDIANVKGEQVVNIGSQDMNDNVWLTLAKKINTDCDKTDGFVITHGTDTMEETAYFLDLTVKCDKPVVMVGAMRPSTSMSADGPFNLYNAVVTAADKASANRGVLVVMNDTVLDGRDVTKTNTTDVATFKSVNYGPLGYIHNGKIDYQRTPARKHTSDTPFDVSKLNELPKVGIVYNYANASDLPAKALVDAGYDGIVSAGVGNGNLYKSVFDTLATAAKTGTAVVRSSRVPTGATTQDAEVDDAKYGFVASGTLNPQKARVLLQLALTQTKDPQQIQQIFNQY", "modifications": "PEG conjugate"}}, "key": {"[1]": {"tested_on": "anti-PEG", "assay": "Inhibition of PEG-RBC agglutination by polymers/small ethers added to anti-PEG positive sera (anti-PEG epitope study, tube test)", "assay_type": "binding, human", "conditions": "for Effect on PEG-RBC agglutination (inhibition): three 4+ anti-PEG positive sera, 1% (w/v) final concentration; for Agglutination Score of PEG-RBCs: compound added at 1% w/v, PBS control 4+", "protocol": "One drop of RBCs (PEG-coated or control (uncoated) RBCs) at 5% hct were added to 2 drops of plasma. Samples were incubated at room temperature for 15 minutes and then centrifuged at 1000×g for 1 minute. Agglutination of PEG-coated or uncoated (control) RBCs by each plasma sample was scored according to the 0-4+ scale.\nThe polymer and small ether solutions were added to anti-PEG positive sera at a 1:1 (v/v) ratio giving a final polymer/small ether concentration of 1% (w/v) and incubated for 30 minutes at room temperature. […] Inhibition of agglutination by the smallest ether molecule tested determined the anti-PEG epitope."}, "[2]": {"assay": "ASNase activity in sera of PEG-ASNase-treated ALL patients (microplate technique) versus anti-PEG status", "assay_type": "in vivo, human", "protocol": "Stored serum samples were collected from 28 pediatric acute lymphoblastic leukemia (ALL) patients who received the chemotherapy agent, PEG-conjugated asparaginase (PEG-ASNase). Sera were assayed for ASNase activity using a microplate technique. Testing for anti-PEG was performed by serology as described in Example 1 and by flow cytometry as described in Example 3."}}}
{"molecule": "OCCO", "note": "[Ethlyene Glycol]", "values": [{"measurement": "Effect on PEG-RBC agglutination (inhibition)", "setting": "[1]", "value": "no effect"}]}
{"molecule": "COCCOCCOCCOC", "note": "[Triethylene Glycol Dimethyl Ether]", "values": [{"measurement": "Agglutination Score of PEG-RBCs", "setting": "[1]; Anti-PEG Positive Donor A", "value": "0^"}, {"measurement": "Agglutination Score of PEG-RBCs", "setting": "[1]; Anti-PEG Positive Donor B", "value": "0^"}, {"measurement": "Agglutination Score of PEG-RBCs", "setting": "[1]; Anti-PEG Positive Donor C", "value": "0^"}, {"measurement": "Effect on PEG-RBC agglutination (inhibition)", "setting": "[1]", "value": "Complete inhibition of agglutination"}]}
{"molecule": "CCOCCOCCOCC", "note": "[Diethylene Glycol Diethyl Ether]", "values": [{"measurement": "Effect on PEG-RBC agglutination (inhibition)", "setting": "[1]", "value": "reduced PEG-RBC agglutination (4+ to 2+)"}]}
{"molecule": "OCCOCCOCCO", "note": "[Triethylene Glycol]", "values": [{"measurement": "Effect on PEG-RBC agglutination (inhibition)", "setting": "[1]", "value": "no effect"}]}
{"molecule": "COCCOCCOCCOCCOC", "note": "[Tetraethylene Glycol Dimethyl Ether]", "values": [{"measurement": "Agglutination Score of PEG-RBCs", "setting": "[1]; Anti-PEG Positive Donor A", "value": "0^"}, {"measurement": "Agglutination Score of PEG-RBCs", "setting": "[1]; Anti-PEG Positive Donor B", "value": "0^"}, {"measurement": "Agglutination Score of PEG-RBCs", "setting": "[1]; Anti-PEG Positive Donor C", "value": "0^"}, {"measurement": "Effect on PEG-RBC agglutination (inhibition)", "setting": "[1]", "value": "Complete inhibition of agglutination"}]}
{"molecule": "OCCOCCO", "note": "[Diethylene Glycol]", "values": [{"measurement": "Effect on PEG-RBC agglutination (inhibition)", "setting": "[1]", "value": "no effect"}]}
{"molecule": "B1", "values": [{"measurement": "mean ASNase activity", "setting": "[2]; IgM anti-PEG positive patients by flow cytometry (n=13)", "value": 12, "unit": "U/L"}, {"measurement": "ASNase activity", "setting": "[2]; all anti-PEG positive patient sera, serology or flow cytometry", "value": "low or undetectable"}, {"measurement": "mean ASNase activity", "setting": "[2]; anti-PEG negative patients by flow cytometry (n=15)", "value": 438, "unit": "U/L"}, {"measurement": "mean ASNase activity", "setting": "[2]; anti-PEG negative patients by serology (n=19)", "value": 353, "unit": "U/L"}, {"measurement": "ASNase activity", "setting": "[2]; anti-PEG positive patients by serology (n=9)", "value": "undetectable"}, {"measurement": "ASNase activity", "setting": "[2]; one anomalous sample, weakly positive for anti-PEG IgM and positive for anti-ASNase", "value": 123, "unit": "U/L"}]}
